This passage reports IC50 results from patent publication US10246453B2, “Benzenesulfonamide compounds and their use as therapeutic agents” (Xenon Pharmaceuticals Inc., priority 2016, dated 2019).

For one data set, the target named is NaV1.6 (Homo sapiens (Human), UniProt Q9UQD0). The data set is described as follows: Sodium Influx Assay (Flux), NaV1.6. Conditions: read-out: Flux NaV1.6 IC50; Trex HEK293 cells, ANG2 dye; arithmetic mean.
A further data set addresses NaV1.1 (Homo sapiens (Human), UniProt P35498). Nature of the data set: Sodium Influx Assay (Flux), NaV1.1. Type of data set: cell-based. The settings on record: Trex HEK293 cells, ANG2 dye; arithmetic mean.
A further data set concerns the target NaV1.5 (Homo sapiens (Human), UniProt Q14524). Nature of the data set: Sodium Influx Assay (Flux), NaV1.5. Conditions: read-out: Flux NaV1.5 IC50; Trex HEK293 cells, ANG2 dye; arithmetic mean.

Structures are written as SMILES. Counter-ions that a name gives are not always drawn.

NaV1.5, sequence (Q14524 other isoform, or with tags, fused parts or gaps): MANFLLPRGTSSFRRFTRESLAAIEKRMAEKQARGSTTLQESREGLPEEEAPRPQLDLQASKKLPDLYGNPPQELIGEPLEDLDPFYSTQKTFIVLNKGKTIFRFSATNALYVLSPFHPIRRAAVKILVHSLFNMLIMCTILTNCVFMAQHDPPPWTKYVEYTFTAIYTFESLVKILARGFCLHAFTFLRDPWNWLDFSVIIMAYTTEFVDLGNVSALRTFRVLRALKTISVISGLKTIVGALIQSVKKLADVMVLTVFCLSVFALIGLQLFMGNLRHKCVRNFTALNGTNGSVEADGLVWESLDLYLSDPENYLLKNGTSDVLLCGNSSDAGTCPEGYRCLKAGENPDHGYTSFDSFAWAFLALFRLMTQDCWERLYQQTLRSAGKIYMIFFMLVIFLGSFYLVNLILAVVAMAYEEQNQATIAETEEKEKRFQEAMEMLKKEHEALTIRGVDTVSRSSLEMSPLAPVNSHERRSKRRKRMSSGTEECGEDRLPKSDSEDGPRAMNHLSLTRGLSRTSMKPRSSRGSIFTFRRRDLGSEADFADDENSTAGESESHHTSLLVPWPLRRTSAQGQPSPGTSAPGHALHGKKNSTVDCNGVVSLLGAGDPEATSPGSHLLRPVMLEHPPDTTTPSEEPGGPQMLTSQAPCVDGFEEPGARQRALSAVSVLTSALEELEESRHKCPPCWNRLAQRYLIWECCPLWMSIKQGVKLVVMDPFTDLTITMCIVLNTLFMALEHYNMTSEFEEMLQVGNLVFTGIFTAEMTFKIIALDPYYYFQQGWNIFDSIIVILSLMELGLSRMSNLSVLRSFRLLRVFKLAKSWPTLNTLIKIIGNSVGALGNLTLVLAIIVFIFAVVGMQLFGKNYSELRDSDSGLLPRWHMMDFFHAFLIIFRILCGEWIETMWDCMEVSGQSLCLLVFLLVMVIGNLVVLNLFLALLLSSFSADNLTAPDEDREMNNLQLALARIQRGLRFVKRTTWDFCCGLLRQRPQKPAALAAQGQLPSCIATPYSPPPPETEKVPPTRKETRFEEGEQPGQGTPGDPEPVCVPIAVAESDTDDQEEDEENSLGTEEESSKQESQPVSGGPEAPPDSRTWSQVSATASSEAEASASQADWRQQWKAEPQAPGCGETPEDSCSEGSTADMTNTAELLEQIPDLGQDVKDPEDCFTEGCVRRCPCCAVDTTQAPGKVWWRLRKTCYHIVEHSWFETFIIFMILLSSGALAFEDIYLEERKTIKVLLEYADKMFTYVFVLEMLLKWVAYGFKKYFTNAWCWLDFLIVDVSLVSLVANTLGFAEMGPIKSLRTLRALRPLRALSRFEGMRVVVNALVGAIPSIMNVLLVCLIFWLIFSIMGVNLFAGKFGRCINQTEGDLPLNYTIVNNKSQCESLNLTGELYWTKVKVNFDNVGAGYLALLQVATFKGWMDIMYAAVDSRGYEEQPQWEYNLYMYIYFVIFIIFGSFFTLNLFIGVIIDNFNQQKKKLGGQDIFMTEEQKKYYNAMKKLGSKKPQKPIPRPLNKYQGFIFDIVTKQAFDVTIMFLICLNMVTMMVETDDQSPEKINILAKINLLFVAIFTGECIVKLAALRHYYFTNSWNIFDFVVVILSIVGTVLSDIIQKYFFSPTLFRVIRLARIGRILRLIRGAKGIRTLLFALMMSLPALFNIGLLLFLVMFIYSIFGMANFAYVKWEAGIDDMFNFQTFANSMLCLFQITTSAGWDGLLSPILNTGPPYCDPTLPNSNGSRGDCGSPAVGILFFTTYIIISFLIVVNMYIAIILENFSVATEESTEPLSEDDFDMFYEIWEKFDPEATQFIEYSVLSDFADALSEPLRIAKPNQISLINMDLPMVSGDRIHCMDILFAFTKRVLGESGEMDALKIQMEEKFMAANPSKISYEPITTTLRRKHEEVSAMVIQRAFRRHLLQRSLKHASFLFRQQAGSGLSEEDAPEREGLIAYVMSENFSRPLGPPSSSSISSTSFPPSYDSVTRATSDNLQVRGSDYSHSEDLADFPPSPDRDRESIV

Take `CC[C@@H](c1ccccc1Cl)N1CC[C@H](N(C)c2cc(F)c(S(=O)(=O)Nc3cscn3)cc2Cl)C1` [Example 248, 5-chloro-4-(((S)-1-((S)-1-(2-chlorophenyl)propyl)pyrrolidin-3-yl)(methyl)amino)-2-fluoro-N-(thiazol-4-yl)benzenesulfonamide 2,2,2-trifluoroacetate]: the IC50 on NaV1.6 was determined as 3.31 µM; at NaV1.1, 5.53 µM; on NaV1.5 it was 7.06 µM.
The corresponding values for `C[C@@H](c1ccccc1)N1CC[C@H](N(C)c2ccc(S(=O)(=O)Nc3cscn3)cc2Cl)C1` [Example 250, 3-chloro-4-(methyl((S)-1-((S)-1-phenylethyl)pyrrolidin-3-yl)amino)-N-(thiazol-4-yl)benzenesulfonamide 2,2,2-trifluoroacetate] are 1.42 µM, 5.5 µM and 6.48 µM.
For `CN(c1ccc(S(=O)(=O)Nc2ncns2)cc1Cl)[C@H]1CCN(Cc2ccccc2Cl)C1` [Example 252, (S)-3-chloro-4-((1-(2-chlorobenzyl)pyrrolidin-3-yl)(methyl)amino)-N-(1,2,4-thiadiazol-5-yl)benzenesulfonamide 2,2,2-trifluoroacetate] the same measures were 0.304 µM, 17.1 µM and 8.08 µM.
The corresponding values for `CC1(Nc2ccc(S(=O)(=O)Nc3cscn3)cc2Cl)CN(Cc2ccccc2)C1` [Example 255, 4-((1-benzyl-3-methylazetidin-3-yl)amino)-3-chloro-N-(thiazol-4-yl)benzenesulfonamide 2,2,2-trifluoroacetate] are 3.7 µM, 9.14 µM and 12.7 µM.
Turning to `O=S(=O)(Nc1cscn1)c1cc(Cl)c(N[C@H]2CCN(Cc3ccccc3)C2)cc1F` [Example 258, (S)-4-((1-benzylpyrrolidin-3-yl)amino)-5-chloro-2-fluoro-N-(thiazol-4-yl)benzenesulfonamide formate], the IC50 at NaV1.6 amounted to 7.98 µM; against NaV1.1, 12.9 µM; at NaV1.5, 15.4 µM.
The corresponding values for `O=S(=O)(Nc1cscn1)c1cc(Cl)c(N[C@@H]2CCN(Cc3ccccc3)C2)cc1F` [Example 261, (R)-4-((1-benzylpyrrolidin-3-yl)amino)-5-chloro-2-fluoro-N-(thiazol-4-yl)benzenesulfonamide] are 6.04 µM, 8.29 µM and 24.6 µM.
For the compound `CN(c1cc(F)c(S(=O)(=O)Nc2cscn2)cc1Cl)[C@@H]1CCN(Cc2ccccc2)C1` [Example 262, (R)-4-((1-benzylpyrrolidin-3-yl)(methyl)amino)-5-chloro-2-fluoro-N-(thiazol-4-yl)benzenesulfonamide], the concentration for half-maximal inhibition (IC50) on NaV1.6 stood at 13.3 µM; against NaV1.1, 25.2 µM; at NaV1.5, 28.8 µM.
For `O=S(=O)(Nc1cscn1)c1cc(Cl)c(N[C@@H]2CN(Cc3ccccc3)CC23CC3)cc1F` [Example 264, (S)-4-((5-benzyl-5-azaspiro[2.4]heptan-7-yl)amino)-5-chloro-2-fluoro-N-(thiazol-4-yl)benzenesulfonamide 2,2,2-trifluoroacetate] the same measures were 4.79 µM, 6.01 µM and 13.1 µM.
The corresponding values for `CN(c1cc(F)c(S(=O)(=O)Nc2cscn2)cc1Cl)[C@@H]1CN(Cc2ccccc2)CC12CC2` [Example 265, (S)-4-((5-benzyl-5-azaspiro[2.4]heptan-7-yl)(methyl)amino)-5-chloro-2-fluoro-N-(thiazol-4-yl)benzenesulfonamide 2,2,2-trifluoroacetate] are 4.79 µM, 6.35 µM and 6.8 µM.
For `Cc1ccc(F)c(CN2CC[C@](C)(Nc3ccc(S(=O)(=O)Nc4cscn4)cc3Cl)C2)c1` [Example 266, (S)-3-chloro-4-((1-(2-fluoro-5-methylbenzyl)-3-methylpyrrolidin-3-yl)amino)-N-(thiazol-4-yl)benzenesulfonamide formate] the same measures were 1.77 µM, 2.67 µM and 2.06 µM.
As to `O=S(=O)(Nc1cscn1)c1c(F)cc(O[C@H]2CCN(Cc3ccccc3)C2)c(Cl)c1F` [Example 268, (S)-4-((1-benzylpyrrolidin-3-yl)oxy)-3-chloro-2,6-difluoro-N-(thiazol-4-yl)benzenesulfonamide hydrochloride], the IC50 is 4.92 µM on NaV1.6, greater than 30 µM at NaV1.1 and 28.2 µM on NaV1.5.
The corresponding values for `CN(c1cc(F)c(S(=O)(=O)Nc2cscn2)cc1C(F)F)[C@H]1CCN(Cc2ccccc2)C1` [Example 270, (S)-4-((1-benzylpyrrolidin-3-yl)(methyl)amino)-5-(difluoromethyl)-2-fluoro-N-(thiazol-4-yl)benzenesulfonamide formate] are 4.74 µM, 21.9 µM and 28.7 µM.
For `Cc1cc(S(=O)(=O)Nc2cscn2)c(F)cc1N[C@@H]1CCN(Cc2ccccc2)C1` [Example 271, (R)-4-((1-benzylpyrrolidin-3-yl)amino)-2-fluoro-5-methyl-N-(thiazol-4-yl)benzenesulfonamide formate] the same measures were 4.09 µM, 8.7 µM and 8.18 µM.
For `Cc1cc(S(=O)(=O)Nc2cscn2)c(F)cc1O[C@H]1CCN(Cc2ccccc2)C1` [Example 273, (S)-4-((1-benzylpyrrolidin-3-yl)oxy)-2-fluoro-5-methyl-N-(thiazol-4-yl)benzenesulfonamide 2,2,2-trifluoroacetate] the same measures were 1.99 µM, 22.5 µM and 7.1 µM.
On to `O=S(=O)(Nc1cscn1)c1c(F)cc(O[C@H]2CCN(Cc3ccccc3)C2)c(Br)c1F` [Example 274, (S)-4-((1-benzylpyrrolidin-3-yl)oxy)-3-bromo-2,6-difluoro-N-(thiazol-4-yl)benzenesulfonamide formate], for which the values for the IC50 at NaV1.6, against NaV1.1 and on NaV1.5 were 1.85 µM, greater than 30 µM and 10 µM, respectively.
For `C=Cc1c(O[C@H]2CCN(Cc3ccccc3)C2)cc(F)c(S(=O)(=O)Nc2cscn2)c1F` [Example 275, (S)-4-((1-benzylpyrrolidin-3-yl)oxy)-2,6-difluoro-N-(thiazol-4-yl)-3-vinylbenzenesulfonamide 2,2,2-trifluoroacetate], the results for the concentration for half-maximal inhibition (IC50) at NaV1.6, against NaV1.1 and at NaV1.5 were 0.738 µM, 29.7 µM and 17.6 µM, respectively.
With `CCc1c(O[C@H]2CCN(Cc3ccccc3)C2)cc(F)c(S(=O)(=O)Nc2cscn2)c1F` [Example 276, (S)-4-((1-benzylpyrrolidin-3-yl)oxy)-3-ethyl-2,6-difluoro-N-(thiazol-4-yl)benzenesulfonamide 2,2,2-trifluoroacetate], the half-maximal inhibitory concentration (IC50) on NaV1.6 stood at 0.566 µM; on NaV1.1 it was 18.7 µM; at NaV1.5, 17.9 µM.
The corresponding values for `Cc1cc(S(=O)(=O)Nc2cscn2)c(F)cc1N(C)[C@H]1CCN(Cc2ccccn2)C1` [Example 278, (S)-2-fluoro-5-methyl-4-(methyl(1-(pyridin-2-ylmethyl)pyrrolidin-3-yl)amino)-N-(thiazol-4-yl)benzenesulfonamide 2,2,2-trifluoroacetate] are 0.893 µM, greater than 30 µM and greater than 30 µM.
Turning to `Cc1cc(S(=O)(=O)Nc2cscn2)ccc1N(C)[C@H]1CCN(Cc2cc(F)ccc2F)C1` [Example 285, (S)-4-((1-(2,5-difluorobenzyl)pyrrolidin-3-yl)(methyl)amino)-3-methyl-N-(thiazol-4-yl)benzenesulfonamide 2,2,2-trifluoroacetate], the IC50 on NaV1.6 turned out to be 0.389 µM; against NaV1.1 it was 4.37 µM; on NaV1.5 it was 2.71 µM.
The corresponding values for `CN(c1cc(F)c(S(=O)(=O)Nc2cscn2)c(F)c1)[C@H]1CCN(Cc2ccccc2)C1` [Example 286, (S)-4-((1-benzylpyrrolidin-3-yl)(methyl)amino)-2,6-difluoro-N-(thiazol-4-yl)benzenesulfonamide formate] are 2.22 µM, 2.27 µM and 1.99 µM.
The corresponding values for `CN(c1cc(F)c(S(=O)(=O)Nc2cscn2)c(F)c1)[C@H]1CCN(Cc2cccc(C(F)F)c2)C1` [Example 287, (S)-4-((1-(3-(difluoromethyl)benzyl)pyrrolidin-3-yl)(methyl)amino)-2,6-difluoro-N-(thiazol-4-yl)benzenesulfonamide 2,2,2-trifluoroacetate] are 6.67 µM, 7.81 µM and 8.26 µM.
`Cc1cc(S(=O)(=O)Nc2cscn2)c(F)cc1N[C@H]1CCN(Cc2ccccc2)C1` [Example 288, (S)-4-((1-benzylpyrrolidin-3-yl)amino)-2-fluoro-5-methyl-N-(thiazol-4-yl)benzenesulfonamide 2,2,2-trifluoroacetate]: the IC50 on NaV1.6 came to 4.32 µM; on NaV1.1, 15.9 µM; at NaV1.5, 27.4 µM.
The corresponding values for `CN(c1cc(F)c(S(=O)(=O)Nc2cscn2)cc1C1CC1)[C@H]1CCN(Cc2ccccc2)C1` [Example 289, (S)-4-((1-benzylpyrrolidin-3-yl)(methyl)amino)-5-cyclopropyl-2-fluoro-N-(thiazol-4-yl)benzenesulfonamide 2,2,2-trifluoroacetate] are 1.27 µM, 7.02 µM and 19.4 µM.
Turning to `CCc1cc(S(=O)(=O)Nc2cscn2)c(F)cc1N(C)[C@H]1CCN(Cc2ccccc2)C1` [Example 290, (S)-4-((1-benzylpyrrolidin-3-yl)(methyl)amino)-5-ethyl-2-fluoro-N-(thiazol-4-yl)benzenesulfonamide 2,2,2-trifluoroacetate], the IC50 on NaV1.6 came to 1.79 µM; against NaV1.1, 6.24 µM; at NaV1.5, 5.3 µM.
